Test results reported in patent US5824665A, “Reduction of hair growth” (priority 1997, dated 1998).

What was measured:
flank organ hair growth = assay: Golden Syrian hamster assay (flank organ hair mass after topical treatment); format: in vivo; settings: thirteen applications
Description: Male intact Golden Syrian hamsters are considered acceptable models for human beard hair growth in that they display oval shaped flank organs, one on each side, each about 8 mm in major diameter, which grow thick black and coarse hair similar to human beard hair. These organs produce hair in response to androgens in the hamster. To evaluate the effectiveness of a composition including a hair growth reducing compound, the flank organs of each of a group of hamsters are depilated by applying a thioglycolate based chemical depilatory (Surgex); alternatively, hair were removed by shaving the flank organs prior to topical treatments. To one organ of each animal 10 μl of vehicle alone once a day is applied, while to the other organ of each animal an equal amount of vehicle containing a hair growth reducing compound is applied. After thirteen applications (one application per day for five days a week), the flank organs are shaved and the amount of recovered hair (hair mass) from each is weighed. Percent-reduction of hair growth is calculated by subtracting the hair mass (mg) value of the test compound treated side from the hair mass value of the vehicle treated side; the delta value obtained is then divided by the hair mass value of the vehicle treated side, and the resultant number is multiplied by 100.
The above-described assay will be referred to herein as the "Golden Syrian hamster" assay. Preferred compositions provide an inhibition in hair growth of at least about 20%, more preferably at least about 40%, and most preferably at least about 60% when tested in the Golden Syrian hamster assay.

hair follicle hexokinase = assay: Hexokinase activity in hair follicle extracts; format: biochemical, hamster; settings: concentration of 1 mM
Protocol: Measurement of the Hexokinase Activity was Performed as Follows
The enzyme hexokinase was extracted from the hamster hair follicles in a buffer containing Tris-HCL (0.25M, pH 8.1), 1.5 mM EDTA and 5.0 mM MgCl2. The extract was prepared in a manner similar to as described above for phosphofructokinase. The following reagents were mixed together and the change in absorbance at 340 nm was monitored to determine enzyme activity--0.5 ml of the Tris buffer, 0.1 ml ATP (5 mM), 0.1 ml phospho(enol)pyruvate and NADH (0.75 mM and 0.2 mM respectively), 0.1 ml of the follicle extract.

[1] = test system: hair follicle phosphofructokinase; assay: Phosphofructokinase activity in hair follicle extracts; format: biochemical, hamster
Protocol: The activity of two target enzymes (phosphofructokinase and hexokinase) was determined in hair follicle extracts in the presence or absence of select enzyme inhibitors.
Measurement of Phosphofructokinase Activity in Hair Follicle Extracts
Hair follicles from hamster flank organs were excised and an enzyme extract was prepared in a buffered mixture containing 75 mM Tris-HCL, 3 mM MgCl2, and 15 mM (NH4)2 SO4, pH 7.5, using a sonication device. The follicle extracts were passed through a 10,000 molecular weight cut off filter by centrifugation at 12,000 x g. The unfiltered extract was transferred to another filter and a 100 ul aliquot of the magnesium buffer was added. The sample was centrifuged again under similar conditions. This procedure was repeated two additional times.
The washed extract was removed from the insert cup and assayed for phosphofructokinase activity according to the following procedure. The extract was mixed with a solution containing 2.0 ml of the magnesium buffer, 0.1 ml of fructose 6-phosphate (30 mM), 0.1 ml ATP (15 mM), 0.1 ml NADH (1.5 mM), 0.3 ml of mercatopethanol (0.1M), 0.3 ml an auxiliary enzyme mixture made up of aldose (10 units/ml), triosephosphate isomerase (8 units/ml), and α-glycerophosphate dehydrogenae (4 units/ml) in 25 mM Tris-HCI (pH 7.5). […] Change in absorbance at UV 340 nm was used to determine the enzyme activity.

[2] = 10% concentration in vehicle, topical 10 μl once a day, vehicle and pH per compound as in the Table
[3] = 10% concentration in vehicle, topical 10 μl once a day, vs vehicle treated side
[4] = 4.4% concentration, vehicle A pH 7.0, topical
[5] = 15.0% concentration, vehicle G pH 7.0, topical
[6] = 7.5% concentration, vehicle C pH 8.5, topical

Molecule | Hair Mass (mg) ± SEM, Treated (flank organ hair growth; [2]) | % Inhibition (hair growth) (flank organ hair growth; [3]) [%] | other results
6-Amino-6-deoxy glucose | 0.77 ± .15 mg | 59 ± 6 | inhibition of the hair follicle hexokinase activity (hair follicle hexokinase): 46%
O=C(O)C1(O)CC1 [1-Hydroxy-1-cyclopropanecarboxylic acid] | 1.80 ± .20 mg | 22 ± 9 | –
O=CC[C@@H](O)[C@H](O)[C@H](O)CO [2-Deoxyglucose] | 0.96 ± .16 mg | 38 ± 7 | –
O=C(O)C(=O)CF [3-Fluoropyruvic acid] | 1.14 ± .09 mg | 40 ± 5 | –
Nc1ncnc2c1ncn2[C@@H]1O[C@H](COC(=O)c2ccc(S(=O)(=O)F)cc2)[C@@H](O)[C@H]1O [5'-p-Flurosuflonylbenzoyl adenosine] | – | – | % Inhibition (hair growth) (flank organ hair growth; [4]): 60 ± 3%; Hair Mass (mg) ± SEM, Treated (flank organ hair growth; [4]): 0.74 ± .05 mg
O=C[C@H](O)[C@@H](O)[C@H](O)[C@H](S)CO [5-Thio-D-glucose] | 1.32 ± .20 mg | 49 ± 6 | –
CCCCCCCCCCCCCCCCC(C(=O)O)C(O)(CC(=O)O)C(=O)O (centres unmarked) [Argaric acid] | 0.97 ± .14 mg | 52 ± 4 | inhibition of the hair follicle phosphofructokinase activity ([1]; concentration of 0.15 mM): 76%
O=C(O)C(=O)CBr [Bromopyruvic acid] | 1.10 ± .11 mg | 58 ± 6 | –
O=C(O)[C@H](O)COP(=O)(O)O [D(-)3-Phosphoglyceric acid] | 2.27 ± .22 mg | 21 ± 7 | –
O=C(O)c1cc(=O)c2ccccc2[nH]1 [Kynurenic acid] | 0.98 ± .09 mg | 64 ± 4 | –
N[C@@H]1C(O)O[C@H](CO)[C@@H](O)[C@@H]1O (some centres unmarked) [Mannosamine] | 0.71 ± .13 mg | 68 ± 6 | inhibition of the hair follicle hexokinase activity (hair follicle hexokinase): 100%
CC(=O)N[C@H]1[C@@H](O)[C@H](O)[C@@H](CO)O[C@H]1O [N-Acetyl-β-D-mannosamine] | 0.79 ± .15 mg | 65 ± 7 | inhibition of the hair follicle hexokinase activity (hair follicle hexokinase): 100%
Cc1ccc(S(=O)(=O)N[C@@H](CCCCN)C(=O)CCl)cc1 [N-α-(p-Tosyl)-L-lysine chloromethyl ketone] | 0.48 ± .11 mg | 81 ± 4 | inhibition of the hair follicle hexokinase activity (hair follicle hexokinase): 100%
O=C(O)C(=O)Cc1ccccc1 [Phenylpyruvic acid] | 0.92 ± .21 mg | 54 ± 10 | –
O=C(CCc1ccc(O)cc1)c1c(O)cc(O)cc1O [Phloretin] | – | – | % Inhibition (hair growth) (flank organ hair growth; [5]): 35 ± 7%; Hair Mass (mg) ± SEM, Treated (flank organ hair growth; [5]): 1.34 ± .11 mg
O=C(O)COP(=O)(O)O [Phosphogylcolic acid] | 0.57 ± .09 mg | 66 ± 5 | inhibition of the hair follicle phosphofructokinase activity ([1]; concentration of 0.9 mM): 45%
O=C(O)c1ccc2ccccc2n1 [Quinaldic Acid] | 0.62 ± .08 mg | 69 ± 4 | –
O=C(O)c1cc(O)c2cccc(O)c2n1 [Xanthurenic acid] | – | – | % Inhibition (hair growth) (flank organ hair growth; [6]): 59 ± 4%; Hair Mass (mg) ± SEM, Treated (flank organ hair growth; [6]): 1.26 ± .13 mg
N#CC(=Cc1ccc(O)cc1)C(=O)O [α-Cyano-4-hydroxycinnamic acid] | 0.87 ± .34 mg | 49 ± 17 | –
